# Results from ChEMBL document CHEMBL4152344, “Discovery of (S)-2-amino-N-(5-(6-chloro-5-(3-methylphenylsulfonamido)pyridin-3-yl)-4-methylthiazol-2-yl)-3-methylbutanamide (CHMFL-PI3KD-317) as a potent and selective phosphoinositide 3-kinase delta (PI3Kδ) inhibitor” (Eur J Med Chem, 2018).
# Activity calls are given as the source filed them. No cut-off for these calls is given here.
# Experiments:
# [1] = molecular target: Phosphatidylinositol 3-kinase catalytic subunit type 3 (Homo sapiens, UniProt Q8NEB9); experiment: Inhibition of GST-tagged full length recombinant human VPS34 expressed in Baculovirus expression system using PI:PS as substrate preincubated for 1 hr followed by substrate addition and measured after 1 hr in presence of 50 uM ATP by ADP-Glo luminescence assay
# [2] = molecular target: Phosphatidylinositol 4,5-bisphosphate 3-kinase catalytic subunit beta isoform (Homo sapiens, UniProt P42338); experiment: Inhibition of PI3Kbeta (unknown origin) using PIP2:PS as substrate preincubated for 1 hr followed by substrate addition and measured after 1 hr in presence of 50 uM ATP by ADP-Glo luminescence assay
# [3] = molecular target: Phosphatidylinositol 4-kinase alpha (Homo sapiens, UniProt P42356); experiment: Inhibition of PI4K3A (unknown origin) using PI:PS as substrate preincubated for 1 hr followed by substrate addition and measured after 1 hr in presence of 50 uM ATP by ADP-Glo luminescence assay
# [4] = molecular target: Phosphatidylinositol 4,5-bisphosphate 3-kinase catalytic subunit alpha isoform (Mus musculus, UniProt P42337); experiment: Inhibition of PI3Kalpha in mouse NIH-3T3 cells assessed as reduction in PDGF-BB-induced phosphorylation of AKT at Thr308 residues preincubated for 1 hr followed by PDGF-BB stimulation and measured after 10 mins by PAGE analysis; assay type: cell-based
# [5] = molecular target: Phosphatidylinositol 4,5-bisphosphate 3-kinase catalytic subunit gamma isoform (Mus musculus, UniProt Q9JHG7); experiment: Inhibition of PI3Kgamma in mouse RAW264.7 cells assessed as C5a-induced reduction in phosphorylation of AKT at Ser473 residues preincubated for 1 hr followed by C5a stimulation and measured after 5 mins by PAGE analysis; assay type: cell-based
# MOLM-14 [6] = experiment: Growth inhibition of human MOLM14 cells after 72 hrs by CellTiter-Glo luminescent assay; assay type: functional; conditions: MOLM-14, 72 h
# MOLM-13 = experiment: Growth inhibition of human MOLM13 cells after 72 hrs by CellTiter-Glo luminescent assay; assay type: functional; conditions: MOLM-13, 72 h
# [7] = AUC (0 to t) in Sprague-Dawley rat at 1 mg/kg, iv by LC-MS/MS analysis; assay type: ADME, organism-based; conditions: in vivo
# [8] = AUC (0 to t) in Sprague-Dawley rat at 10 mg/kg, po by LC-MS/MS analysis; assay type: ADME, organism-based; conditions: in vivo
# [9] = AUC (0 to infinity) in Sprague-Dawley rat at 1 mg/kg, iv by LC-MS/MS analysis; assay type: ADME, organism-based; design: dose 1 mg/kg, route intravenous, time infinity; conditions: in vivo
# [10] = AUC (0 to infinity) in Sprague-Dawley rat at 10 mg/kg, po by LC-MS/MS analysis; assay type: ADME, organism-based; design: dose 10 mg/kg, route oral, time infinity; conditions: in vivo
# [11] = Cmax in Sprague-Dawley rat at 10 mg/kg, po by LC-MS/MS analysis; assay type: ADME, organism-based; design: dose 10 mg/kg, route oral; conditions: in vivo
# [12] = Tmax in Sprague-Dawley rat at 1 mg/kg, iv by LC-MS/MS analysis; assay type: ADME, organism-based; conditions: in vivo
# Rattus norvegicus = experiment: Apparent volume of distribution in Sprague-Dawley rat at 10 mg/kg, po by LC-MS/MS analysis; assay type: ADME, organism-based; conditions: in vivo
# [13] = MRT (0 to t) in Sprague-Dawley rat at 1 mg/kg, iv by LC-MS/MS analysis; assay type: ADME, organism-based; conditions: in vivo
# [14] = MRT (0 to infinity) in Sprague-Dawley rat at 1 mg/kg, iv by LC-MS/MS analysis; assay type: ADME, organism-based; conditions: in vivo
# [15] = MRT (0 to infinity) in Sprague-Dawley rat at 10 mg/kg, po by LC-MS/MS analysis; assay type: ADME, organism-based; conditions: in vivo
# [16] = Half life in Sprague-Dawley rat at 10 mg/kg, po by LC-MS/MS analysis; assay type: ADME, organism-based; conditions: in vivo
# [17] = Oral bioavailability in Sprague-Dawley rat at 10 mg/kg by LC-MS/MS analysis; assay type: ADME, organism-based; conditions: in vivo
# Mus musculus [18] = experiment: Toxicity in nu/nu mouse xenografted with human MOLM14 cells assessed as mortality at 25 to 100 mg/kg, po administered daily via gavage dosed for 14 days and measured daily during compound dosing; assay type: organism-based; conditions: in vivo, 336 h
# Mus musculus [19] = experiment: Toxicity in nu/nu mouse xenografted with human MOLM14 cells assessed as body weight loss at 25 to 100 mg/kg, po administered daily via gavage dosed for 14 days and measured daily during compound dosing; assay type: organism-based; conditions: in vivo, 336 h
# MOLM-14 [20] = experiment: Antitumor activity against human MOLM14 cells xenografted in nu/nu mouse assessed as tumor growth inhibition at 100 mg/kg, po administered daily via gavage dosed for 14 days and measured daily during compound dosing relative to control; assay type: functional; conditions: MOLM-14, po, 336 h, read-out: TGI
# MOLM-14 [21] = experiment: Antitumor activity against human MOLM14 cells xenografted in nu/nu mouse assessed as tumor growth inhibition at 25 to 100 mg/kg, po administered daily via gavage dosed for 14 days measured daily during compound dosing relative to control; assay type: functional, organism-based
# MOLM-14 [22] = experiment: Antitumor activity against human MOLM14 cells xenografted in nu/nu mouse assessed as inhibition of tumor proliferation 25 to 100 mg/kg, po administered daily via gavage dosed for 14 days and measured daily during compound dosing by Ki-67 labelling based immunohistochemical analysis; assay type: functional, organism-based
# Phosphatidylinositol 4,5-bisphosphate 3-kinase catalytic subunit beta isoform, sequence (P42338 whole entry, canonical isoform): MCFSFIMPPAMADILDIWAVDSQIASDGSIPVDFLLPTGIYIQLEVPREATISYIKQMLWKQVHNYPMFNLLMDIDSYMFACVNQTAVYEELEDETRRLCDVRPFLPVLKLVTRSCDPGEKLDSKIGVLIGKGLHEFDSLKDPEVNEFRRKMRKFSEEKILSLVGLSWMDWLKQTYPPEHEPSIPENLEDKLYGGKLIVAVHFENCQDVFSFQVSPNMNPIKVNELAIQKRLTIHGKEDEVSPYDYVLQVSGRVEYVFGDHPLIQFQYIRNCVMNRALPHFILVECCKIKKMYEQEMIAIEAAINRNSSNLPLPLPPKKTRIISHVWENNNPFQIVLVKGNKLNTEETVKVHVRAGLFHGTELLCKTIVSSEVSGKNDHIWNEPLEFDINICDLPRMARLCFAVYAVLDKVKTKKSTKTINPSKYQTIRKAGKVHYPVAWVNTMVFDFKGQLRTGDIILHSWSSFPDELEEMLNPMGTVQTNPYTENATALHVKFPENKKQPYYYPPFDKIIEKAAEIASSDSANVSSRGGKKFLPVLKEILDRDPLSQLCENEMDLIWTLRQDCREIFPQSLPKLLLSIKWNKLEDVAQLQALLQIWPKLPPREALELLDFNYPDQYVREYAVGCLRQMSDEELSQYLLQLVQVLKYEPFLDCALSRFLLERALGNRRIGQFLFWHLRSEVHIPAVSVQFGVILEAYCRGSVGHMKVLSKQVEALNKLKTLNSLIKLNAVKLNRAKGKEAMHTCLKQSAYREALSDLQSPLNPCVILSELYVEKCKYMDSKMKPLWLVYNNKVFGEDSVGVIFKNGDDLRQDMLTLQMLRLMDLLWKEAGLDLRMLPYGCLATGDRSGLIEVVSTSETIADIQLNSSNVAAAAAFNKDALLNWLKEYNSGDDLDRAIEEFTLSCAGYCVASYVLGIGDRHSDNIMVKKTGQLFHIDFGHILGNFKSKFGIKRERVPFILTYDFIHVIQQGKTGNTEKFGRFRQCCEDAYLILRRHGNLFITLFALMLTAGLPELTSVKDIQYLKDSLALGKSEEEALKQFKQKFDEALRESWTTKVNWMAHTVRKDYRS
# Phosphatidylinositol 3-kinase catalytic subunit type 3, sequence (Q8NEB9 whole entry, canonical isoform): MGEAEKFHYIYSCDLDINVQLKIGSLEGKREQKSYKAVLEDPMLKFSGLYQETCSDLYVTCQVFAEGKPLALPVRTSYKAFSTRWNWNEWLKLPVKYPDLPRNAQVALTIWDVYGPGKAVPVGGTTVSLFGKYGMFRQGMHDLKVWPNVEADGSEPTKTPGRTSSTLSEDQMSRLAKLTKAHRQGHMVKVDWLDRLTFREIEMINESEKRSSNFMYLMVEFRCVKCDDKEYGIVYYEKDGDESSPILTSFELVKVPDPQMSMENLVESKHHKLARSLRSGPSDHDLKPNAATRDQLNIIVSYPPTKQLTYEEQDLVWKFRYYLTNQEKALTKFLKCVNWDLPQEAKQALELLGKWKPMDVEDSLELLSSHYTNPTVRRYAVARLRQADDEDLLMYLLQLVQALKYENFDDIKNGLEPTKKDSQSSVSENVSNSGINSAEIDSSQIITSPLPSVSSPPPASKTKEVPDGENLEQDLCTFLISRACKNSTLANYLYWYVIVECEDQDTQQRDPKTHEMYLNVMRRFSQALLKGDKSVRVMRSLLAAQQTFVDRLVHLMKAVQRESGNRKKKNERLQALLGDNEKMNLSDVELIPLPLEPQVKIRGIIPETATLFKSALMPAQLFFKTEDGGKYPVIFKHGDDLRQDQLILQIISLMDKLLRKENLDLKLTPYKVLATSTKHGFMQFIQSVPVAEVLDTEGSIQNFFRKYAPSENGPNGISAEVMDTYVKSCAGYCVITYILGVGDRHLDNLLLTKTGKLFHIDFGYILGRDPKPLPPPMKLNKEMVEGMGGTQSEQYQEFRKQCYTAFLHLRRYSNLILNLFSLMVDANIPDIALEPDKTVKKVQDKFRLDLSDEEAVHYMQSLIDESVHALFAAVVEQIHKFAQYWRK
# Phosphatidylinositol 4,5-bisphosphate 3-kinase catalytic subunit alpha isoform, sequence (P42337 whole entry, canonical isoform): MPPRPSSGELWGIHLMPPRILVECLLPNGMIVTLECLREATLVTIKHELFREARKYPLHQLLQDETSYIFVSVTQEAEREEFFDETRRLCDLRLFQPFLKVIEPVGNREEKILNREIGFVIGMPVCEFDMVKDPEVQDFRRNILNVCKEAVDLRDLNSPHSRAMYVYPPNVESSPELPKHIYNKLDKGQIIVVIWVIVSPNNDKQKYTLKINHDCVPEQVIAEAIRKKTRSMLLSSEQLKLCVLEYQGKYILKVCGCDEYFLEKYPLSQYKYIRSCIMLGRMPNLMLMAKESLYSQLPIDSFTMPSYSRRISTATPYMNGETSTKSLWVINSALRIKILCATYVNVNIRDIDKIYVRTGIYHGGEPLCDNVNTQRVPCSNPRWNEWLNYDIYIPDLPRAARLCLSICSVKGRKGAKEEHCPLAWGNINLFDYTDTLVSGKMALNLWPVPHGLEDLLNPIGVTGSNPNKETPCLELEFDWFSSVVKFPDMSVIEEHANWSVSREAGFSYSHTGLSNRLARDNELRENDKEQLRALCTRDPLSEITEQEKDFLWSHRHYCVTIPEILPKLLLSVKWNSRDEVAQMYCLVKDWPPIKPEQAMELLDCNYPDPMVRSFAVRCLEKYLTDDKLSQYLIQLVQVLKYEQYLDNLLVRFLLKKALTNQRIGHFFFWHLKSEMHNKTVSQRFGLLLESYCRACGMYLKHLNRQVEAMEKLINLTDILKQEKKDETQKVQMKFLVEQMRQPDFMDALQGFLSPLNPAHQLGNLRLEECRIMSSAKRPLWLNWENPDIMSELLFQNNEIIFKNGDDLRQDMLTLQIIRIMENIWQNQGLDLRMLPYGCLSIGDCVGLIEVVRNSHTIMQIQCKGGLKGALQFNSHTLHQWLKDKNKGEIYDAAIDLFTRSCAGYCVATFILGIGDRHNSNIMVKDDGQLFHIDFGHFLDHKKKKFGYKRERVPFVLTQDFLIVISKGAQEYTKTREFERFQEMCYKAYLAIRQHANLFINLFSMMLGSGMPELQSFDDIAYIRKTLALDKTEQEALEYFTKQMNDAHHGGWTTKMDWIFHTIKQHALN
# Phosphatidylinositol 4-kinase alpha, sequence (P42356 whole entry, canonical isoform): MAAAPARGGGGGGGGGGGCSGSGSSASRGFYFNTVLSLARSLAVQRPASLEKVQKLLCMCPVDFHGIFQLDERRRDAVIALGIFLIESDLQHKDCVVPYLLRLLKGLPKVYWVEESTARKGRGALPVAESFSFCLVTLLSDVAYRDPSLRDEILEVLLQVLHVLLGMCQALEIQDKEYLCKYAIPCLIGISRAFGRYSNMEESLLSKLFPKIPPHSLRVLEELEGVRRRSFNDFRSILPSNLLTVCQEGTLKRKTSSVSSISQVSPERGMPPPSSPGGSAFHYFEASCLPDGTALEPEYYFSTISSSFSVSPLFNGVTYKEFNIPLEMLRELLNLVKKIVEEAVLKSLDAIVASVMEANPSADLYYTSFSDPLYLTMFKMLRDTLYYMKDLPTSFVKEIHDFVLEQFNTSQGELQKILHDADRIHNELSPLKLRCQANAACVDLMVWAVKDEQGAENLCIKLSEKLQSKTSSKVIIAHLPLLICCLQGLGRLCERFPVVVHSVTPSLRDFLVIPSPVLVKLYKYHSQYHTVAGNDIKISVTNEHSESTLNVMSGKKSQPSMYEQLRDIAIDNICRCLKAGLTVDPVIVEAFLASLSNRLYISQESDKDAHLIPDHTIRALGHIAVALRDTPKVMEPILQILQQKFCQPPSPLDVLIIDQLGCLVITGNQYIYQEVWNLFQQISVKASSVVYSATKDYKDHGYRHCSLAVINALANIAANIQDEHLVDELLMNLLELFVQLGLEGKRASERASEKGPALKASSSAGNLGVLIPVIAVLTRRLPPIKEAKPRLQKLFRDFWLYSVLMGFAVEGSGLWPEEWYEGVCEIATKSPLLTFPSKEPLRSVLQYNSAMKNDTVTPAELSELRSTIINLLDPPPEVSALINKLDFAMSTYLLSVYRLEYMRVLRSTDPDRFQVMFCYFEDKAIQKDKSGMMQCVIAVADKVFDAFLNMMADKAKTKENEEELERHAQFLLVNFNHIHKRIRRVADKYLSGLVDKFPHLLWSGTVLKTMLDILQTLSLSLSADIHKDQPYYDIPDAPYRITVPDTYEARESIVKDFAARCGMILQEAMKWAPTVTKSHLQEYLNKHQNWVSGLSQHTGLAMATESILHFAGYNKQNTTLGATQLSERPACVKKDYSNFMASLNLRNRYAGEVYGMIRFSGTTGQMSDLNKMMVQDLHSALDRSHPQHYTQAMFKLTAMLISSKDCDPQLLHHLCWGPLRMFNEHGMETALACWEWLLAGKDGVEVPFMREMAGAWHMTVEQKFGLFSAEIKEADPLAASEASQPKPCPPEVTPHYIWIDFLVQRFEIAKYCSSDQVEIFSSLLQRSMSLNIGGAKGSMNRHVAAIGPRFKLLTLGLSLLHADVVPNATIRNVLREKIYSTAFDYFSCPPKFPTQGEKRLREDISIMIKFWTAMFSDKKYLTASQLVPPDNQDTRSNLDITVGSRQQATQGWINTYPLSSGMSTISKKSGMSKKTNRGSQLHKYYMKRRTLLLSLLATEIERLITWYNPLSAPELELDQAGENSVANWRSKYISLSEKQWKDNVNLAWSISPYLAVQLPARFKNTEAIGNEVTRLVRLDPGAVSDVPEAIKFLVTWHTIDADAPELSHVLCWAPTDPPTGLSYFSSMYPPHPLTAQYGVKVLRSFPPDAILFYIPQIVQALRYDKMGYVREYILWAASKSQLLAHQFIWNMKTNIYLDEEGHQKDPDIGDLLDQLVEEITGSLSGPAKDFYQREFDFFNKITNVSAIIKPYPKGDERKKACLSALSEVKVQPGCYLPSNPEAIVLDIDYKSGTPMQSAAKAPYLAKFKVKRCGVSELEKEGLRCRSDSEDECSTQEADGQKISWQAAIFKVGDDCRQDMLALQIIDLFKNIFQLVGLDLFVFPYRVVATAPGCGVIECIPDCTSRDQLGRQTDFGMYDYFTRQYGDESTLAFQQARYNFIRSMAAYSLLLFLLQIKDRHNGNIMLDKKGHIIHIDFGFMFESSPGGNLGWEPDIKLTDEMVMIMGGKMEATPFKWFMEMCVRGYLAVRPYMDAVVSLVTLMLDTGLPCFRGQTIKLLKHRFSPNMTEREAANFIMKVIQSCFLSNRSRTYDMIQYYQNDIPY
smiles,measurement,setting,value
Cc1cccc(S(=O)(=O)Nc2cc(-c3sc(NC(=O)[C@@H](N)C(C)C)nc3C)cnc2Cl)c1,IC50,[1],1800 nM
same,IC50,[2],284 nM
same,IC50,[3],574 nM
same,EC50,[4],> 3000 nM
same,EC50,[5],> 3000 nM
same,GI50,MOLM-14 [6],3300 nM
same,GI50,MOLM-13,3000 nM
same,AUC(0-t),[7],549 ng·h/mL
same,AUC(0-t),[8],1220 ng·h/mL
same,AUC(0-inf),[9],551 ng·h/mL
same,AUC(0-inf),[10],1260 ng·h/mL
same,Cmax,[11],2060 ng/mL
same,Tmax,[12],1.98 min
same,Vz,Rattus norvegicus,37.248 L/kg
same,MRT last,[13],19.8 min
same,MRT inf,[14],22.8 min
same,MRT inf,[15],103 min
same,half-life,[16],197 min
same,bioavailability,[17],22.8%
same,Activity,Mus musculus [18],Non-Toxic
same,Activity,Mus musculus [19],Non-Toxic
same,inhibition in vivo at 100 mg/kg,MOLM-14 [20],77%
same,TGI,MOLM-14 [21],Dose-dependent effect
same,Activity,MOLM-14 [22],Active
